From US12398120B2, “Substituted hydantoinamides as ADAMTS7 antagonists” (BAYER AKTIENGESELLSCHAFT, priority 2019, dated 2025)

Biological target: ADAMTS4 (Homo sapiens (Human), UniProt O75173)
Experiment: Selectivity assay for ADAMTS-7 modulators: ADAMTS4 (FRET substrate)
Assay type: biochemical
Conditions: ADAMTS4 (R&D 4307-AD) 50 nM, substrate Dabcyl-EEVKAKVQPY-Glu(Edans)-NH2 1 μM, 120 min, 32° C.
How it was run: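 Human ADAMTS4 with compound in DMSO, or DMSO control; reaction started by adding FRET substrate in reaction buffer. Fluorescence increase measured at substrate-specific wavelengths. IC50 derived from % inhibition of enzyme activity versus compound concentration.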

ADAMTS4, sequence (O75173 213-685): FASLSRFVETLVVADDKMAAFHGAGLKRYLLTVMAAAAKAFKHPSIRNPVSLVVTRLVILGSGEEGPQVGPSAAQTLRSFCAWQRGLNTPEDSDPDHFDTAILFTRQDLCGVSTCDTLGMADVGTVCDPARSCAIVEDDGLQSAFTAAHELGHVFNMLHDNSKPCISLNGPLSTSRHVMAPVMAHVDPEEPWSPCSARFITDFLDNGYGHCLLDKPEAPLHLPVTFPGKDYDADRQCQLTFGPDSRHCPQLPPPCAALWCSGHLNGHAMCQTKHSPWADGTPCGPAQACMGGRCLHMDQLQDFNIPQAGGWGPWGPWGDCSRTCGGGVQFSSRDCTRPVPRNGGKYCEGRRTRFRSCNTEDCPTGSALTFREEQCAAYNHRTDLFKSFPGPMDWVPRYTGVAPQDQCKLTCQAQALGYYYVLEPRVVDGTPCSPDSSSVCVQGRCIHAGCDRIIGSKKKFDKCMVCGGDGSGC

| IC50 | Compound |
| --- | --- |
| 13 µM | Cc1ccc(C(=O)NC[C@@]2(C3CC3)NC(=O)NC2=O)c(-c2ccc(C3CC3(F)F)cc2)c1 (single isomer, unassigned) [Example 137] |
| 4.9 µM | Cc1ccc(C(=O)NC[C@@]2(C3CC3)NC(=O)NC2=O)c(-c2ccc(C3CC3(F)F)cc2)c1 (single isomer, unassigned) [Example 138] |
| 3.75 µM | Cn1ccnc1C1(CNC(=O)c2c(F)cccc2-c2ccc(C(F)(F)F)cc2)NC(=O)NC1=O (single isomer, unassigned; ent-3) [Example 159, Ent-3-Fluoro-N-{[4-(1-Methyl-1H-Imidazol-2-Yl)-2,5-Dioxoimidazolidin-4-Yl]Methyl}-4′-(Trifluoromethyl)[Biphenyl]-2-Carboxamide] |
| 24 µM | Cn1nccc1C1(CNC(=O)c2c(F)cccc2-c2ccc(C(F)(F)F)cc2)NC(=O)NC1=O (single isomer, unassigned; ent-3) [Example 186, Ent-3-Fluoro-N-{[4-(1-Methyl-1H-Pyrazol-5-Yl)-2,5-Dioxoimidazolidin-4-Yl]Methyl}-4′-(Trifluoromethyl)[Biphenyl]-2-Carboxamide] |
| 3.65 µM | Cn1nccc1C1(CNC(=O)c2c(Cl)cccc2-c2ccc(Cl)cc2)NC(=O)NC1=O (single isomer, unassigned; ent-3) [Example 189, Ent-3,4′-Dichloro-N-{[4-(1-Methyl-1H-Pyrazol-5-Yl)-2,5-Dioxoimidazolidin-4-Yl]Methyl}[Biphenyl]-2-Carboxamide] |
| 11 µM | Cn1nccc1C1(CNC(=O)c2ccccc2-c2ccc(Cl)c(Cl)c2)NC(=O)NC1=O (single isomer, unassigned; ent-3) [Example 311, Ent-3′,4′-Dichloro-N-{[4-(1-Methyl-1H-Pyrazol-5-Yl)-2,5-Dioxoimidazolidin-4-Yl]Methyl}[Biphenyl]-2-Carboxamide] |
| 4.8 µM | Cc1ncsc1C1(CNC(=O)c2ccccc2-c2ccc(Cl)cc2)NC(=O)NC1=O (single isomer, unassigned; ent-4) [Example 9, Ent-4′-Chloro-N-{[4-(4-Methyl-1,3-Thiazol-5-Yl)-2,5-Dioxoimidazolidin-4-Yl]Methyl}[Biphenyl]-2-Carboxamide] |
| 5.9 µM | Cc1ncsc1C1(CNC(=O)c2cc(F)ccc2-c2ccc(C(F)(F)F)cc2)NC(=O)NC1=O (single isomer, unassigned; ent-4) [Example 11, Ent-4-Fluoro-N-{[4-(4-Methyl-1,3-Thiazol-5-Yl)-2,5-Dioxoimidazolidin-4-Yl]Methyl}-4′-(Trifluoromethyl)[Biphenyl]-2-Carboxamide] |
| 7.1 µM | Cc1scnc1C1(CNC(=O)c2cc(F)c(F)cc2-c2ccc(C(F)(F)F)cc2)NC(=O)NC1=O (single isomer, unassigned; ent-4) [Example 17, Ent-4,5-Difluoro-N-{[4-(5-Methyl-1,3-Thiazol-4-Yl)-2,5-Dioxoimidazolidin-4-Yl]Methyl}-4′-(Trifluoromethyl)[Biphenyl]-2-Carboxamide] |
| 41 µM | Cc1scnc1C1(CNC(=O)c2cc(Cl)ccc2-c2ccc(C(F)(F)F)cc2)NC(=O)NC1=O (single isomer, unassigned; ent-4) [Example 18, Ent-4-Chloro-N-{[4-(5-Methyl-1,3-Thiazol-4-Yl)-2,5-Dioxoimidazolidin-4-Yl]Methyl}-4′-(Trifluoromethyl)[Biphenyl]-2-Carboxamide] |
| 1.4 µM | Cc1ccc(-c2c(C)cccc2C(=O)NCC2(c3nccn3C)NC(=O)NC2=O)cc1 (single isomer, unassigned; ent-4) [Example 134, Ent-4′,6-Dimethyl-N-{[4-(1-Methyl-1H-Imidazol-2-Yl)-2,5-Dioxoimidazoidin-4-Yl]Methyl}[1,1′-Biphenyl]-2-Carboxamide] |
| 1.9 µM | Cc1ccc(-c2ccccc2C(=O)NCC2(c3nccn3C)NC(=O)NC2=O)cc1 (single isomer, unassigned; ent-4) [Example 146, Ent-4′-Methyl-N-{[4-(1-Methyl-1H-Imidazol-2-Yl)-2,5-Dioxoimidazolidin-4-Yl]Methyl}[Biphenyl]-2-Carboxamide] |
| 1.15 µM | Cn1ccnc1C1(CNC(=O)c2cc(F)ccc2-c2ccc(C(F)(F)F)cc2)NC(=O)NC1=O (single isomer, unassigned; ent-4) [Example 149, Ent-4-Fluoro-N-{[4-(1-Methyl-1H-Imidazol-2-Yl)-2,5-Dioxoimidazolidin-4-Yl]Methyl}-4′-(Trifluoromethyl)[Biphenyl]-2-Carboxamide] |
| 0.705 µM | Cc1ccc(-c2ccc(F)cc2C(=O)NCC2(c3nccn3C)NC(=O)NC2=O)cc1 (single isomer, unassigned; ent-4) [Example 152, Ent-4-Fluoro-4′-Methyl-N-{[4-(1-Methyl-1H-Imidazol-2-Yl)-2,5-Dioxoimidazolidin-4-Yl]Methyl}[Biphenyl]-2-Carboxamide] |
| 3.95 µM | Cn1ccnc1C1(CNC(=O)c2cc(F)c(F)cc2-c2ccc(C(F)(F)F)cc2)NC(=O)NC1=O (single isomer, unassigned; ent-4) [Example 154, Ent-4,5-Difluoro-N-{[4-(1-Methyl-1H-Imidazol-2-Yl)-2,5-Dioxoimidazolidin-4-Yl]Methyl}-4′-(Trifluoromethyl)[Biphenyl]-2-Carboxamide] |
| 5.9 µM | Cn1ccnc1C1(CNC(=O)c2ccccc2-c2ccc(Cl)cc2)NC(=O)NC1=O (single isomer, unassigned; ent-4) [Example 155, Ent-4′-Chloro-N-{[4-(1-Methyl-1H-Imidazol-2-Yl)-2,5-Dioxoimidazolidin-4-Yl]Methyl}[Biphenyl]-2-Carboxamide] |
| 25 µM | Cn1ccnc1C1(CNC(=O)c2cc(Cl)ccc2-c2ccc(C(F)(F)F)cc2)NC(=O)NC1=O (single isomer, unassigned; ent-4) [Example 156, Ent-4-Chloro-N-{[4-(1-Methyl-1H-Imidazol-2-Yl)-2,5-Dioxoimidazolidin-4-Yl]Methyl}-4′-(Trifluoromethyl)[Biphenyl]-2-Carboxamide] |
| 3 µM | Cn1ccnc1C1(CNC(=O)c2ccc(F)cc2-c2ccc(Cl)cc2)NC(=O)NC1=O (single isomer, unassigned; ent-4) [Example 157, Ent-4′-Chloro-5-Fluoro-N-{[4-(1-Methyl-1H-Imidazol-2-Yl)-2,5-Dioxoimidazolidin-4-Yl]Methyl}[Biphenyl]-2-Carboxamide] |
| 0.83 µM | Cn1ccnc1C1(CNC(=O)c2cc(F)ccc2-c2ccc(Cl)cc2)NC(=O)NC1=O (single isomer, unassigned; ent-4) [Example 160, Ent-4′-Chloro-4-Fluoro-N-{[4-(1-Methyl-1H-Imidazol-2-Yl)-2,5-Dioxoimidazolidin-4-Yl]Methyl}[Biphenyl]-2-Carboxamide] |
| 0.463 µM | Cn1ccnc1C1(CNC(=O)c2ccc(Cl)cc2-c2ccc(Cl)cc2)NC(=O)NC1=O (single isomer, unassigned; ent-4) [Example 162, Ent-4′,5-Dichloro-N-{[4-(1-Methyl-1H-Imidazol-2-Yl)-2,5-Dioxoimidazolidin-4-Yl]Methyl}[Biphenyl]-2-Carboxamide] |
| 3.25 µM | Cc1scnc1C1(CNC(=O)c2cc(F)ccc2-c2ccc(C(F)(F)F)cc2)NC(=O)NC1=O (single isomer, unassigned; ent-4) [Example 166, Ent-4-Fluoro-N-{[4-(5-Methyl-1,3-Thiazol-4-Yl)-2,5-Dioxoimidazolidin-4-Yl]Methyl}-4′-(Trifluoromethyl)[Biphenyl]-2-Carboxamide] |
| 4.9 µM | Cc1scnc1C1(CNC(=O)c2ccc(F)cc2-c2ccc(Cl)cc2)NC(=O)NC1=O (single isomer, unassigned; ent-4) [Example 170, Ent-4′-Chloro-5-Fluoro-N-{[4-(5-Methyl-1,3-Thiazol-4-Yl)-2,5-Dioxoimidazolidin-4-Yl]Methyl}[Biphenyl]-2-Carboxamide] |
| 3.1 µM | Cc1scnc1C1(CNC(=O)c2ccccc2-c2ccc(Cl)cc2)NC(=O)NC1=O (single isomer, unassigned; ent-4) [Example 172, Ent-4′-Chloro-N-{[4-(5-Methyl-1,3-Thiazol-4-Yl)-2,5-Dioxoimidazolidin-4-Yl]Methyl}[Biphenyl]-2-Carboxamide] |
| 2.6 µM | Cc1scnc1C1(CNC(=O)c2cc(F)ccc2-c2ccc(Cl)cc2)NC(=O)NC1=O (single isomer, unassigned; ent-4) [Example 174, Ent-4′-Chloro-4-Fluoro-N-{[4-(5-Methyl-1,3-Thiazol-4-Yl)-2,5-Dioxoimidazolidin-4-Yl]Methyl}[Biphenyl]-2-Carboxamide] |
| 4.9 µM | Cc1scnc1C1(CNC(=O)c2ccccc2-c2ccc(S(C)(=O)=O)cc2)NC(=O)NC1=O (single isomer, unassigned; ent-4) [Example 175, Ent-4′-(Methylsulfonyl)-N-{[4-(5-Methyl-1,3-Thiazol-4-Yl)-2,5-Dioxoimidazolidin-4-Yl]Methyl}[Biphenyl]-2-Carboxamide] |
| 5.37 µM | Cn1nccc1C1(CNC(=O)c2cc(F)ccc2-c2ccc(C(F)(F)F)cc2)NC(=O)NC1=O (single isomer, unassigned; ent-4) [Example 178, Ent-4-Fluoro-N-{[4-(1-Methyl-1H-Pyrazol-5-Yl)-2,5-Dioxoimidazolidin-4-Yl]Methyl}-4′-(Trifluoromethyl)[Biphenyl]-2-Carboxamide] |
| 17.8 µM | Cn1nccc1C1(CNC(=O)c2ccc(F)cc2-c2ccc(Cl)cc2)NC(=O)NC1=O (single isomer, unassigned; ent-4) [Example 180, Ent-4′-Chloro-5-Fluoro-N-{[4-(1-Methyl-1H-Pyrazol-5-Yl)-2,5-Dioxoimidazolidin-4-Yl]Methyl}[Biphenyl]-2-Carboxamide] |
| 4.03 µM | Cn1nccc1C1(CNC(=O)c2ccccc2-c2ccc(Cl)cc2)NC(=O)NC1=O (single isomer, unassigned; ent-4) [Example 182, Ent-4′-Chloro-N-{[4-(1-Methyl-1H-Pyrazol-5-Yl)-2,5-Dioxoimidazolidin-4-Yl]Methyl}[Biphenyl]-2-Carboxamide] |
